Source: patent US5874442A, “Tricyclic amides useful for inhibition of G-protein function and for treatment of proliferative disease” (Schering-Plough Corporation, priority 1996, dated 1999)

Assays:
[1] = tested on: Ras-CVLS processing in COS cells; assay: Cell-based COS cell assay: inhibition of Ras processing (Ras-CVLS); set-up: species or system monkey; settings: Primates, COS, read-out: Inhibition of Ras Processing IC50, Table 3, COS cells
Excerpt: Transient expression of val^12 -Ha-Ras-CVLS and […] -Ha-Ras-CVLL in COS monkey kidney cells: Effect of farnesyl protein transferase inhibitors on Ras processing and on disordered cell growth induced by transforming Ras.
COS monkey kidney cells were transfected by electroporation with the plasmid pSV-SPORT (Gibco/BRL) containing a cDNA insert encoding either Ras-CVLS or Ras-CVLL, leading to transient overexpression of a Ras substrate for either farnesyl protein transferase or geranylgeranyl protein transferase I, respectively (see above).
Following electroporation, cells were plated into 6-well tissue culture dishes containing 1.5 ml of Dulbecco's-modified Eagle's media (GIBCO, Inc.) supplemented with 10% fetal calf serum and the appropriate farnesyl protein transferase inhibitors. After 24 hours, media was removed and fresh media containing the appropriate drugs was re-added.
48 hours after electroporation cells were examined under the microscope to monitor disordered cell growth induced by transforming Ras. Cells expressing transforming Ras become more rounded and refractile and overgrow the monolayer, reminiscent of the transformed phenotype. Cells were then photographed, washed twice with 1 ml of cold phosphate-buffered saline (PBS) and removed from the dish by scraping with a rubber policeman into 1 ml of a buffer containing 25 mM Tris, pH 8.0; 1 mM ethylenediamine tetraacetic acid; 1 mM phenylmethylsulfonyl fluoride; […]; and 0.1 mM pepstatin. Cells were lysed by homogenization and cell debris was removed by centrifugation at 2000× g for 10 min.
Cellular protein was precipitated by addition of ice-cold trichloroacetic acid and redissolved in […] of SDS-electrophoresis sample buffer. […] Proteins resolved on the gels were electroblotted onto nitrocellulose membranes for immunodetection.
After washing, membranes were incubated for one hour at room temperature with a 1:5000 dilution of secondary antibody, rabbit anti-rat lgG conjugated to horseradish peroxidase, in PBS containing 1% fetal calf serum. The presence of processed and unprocessed Ras-CVLS or Ras-CVLL was detected using a colorimetric peroxidase reagent (4-chloro-1-naphthol) as described by the manufacturer (Bio-Rad).

[2] = tested on: Normal human HEPM fibroblasts; assay: Cell mat assay, normal cells (cell mat); assay type: cell-based; settings: Homo sapiens, Fibroblast, 336 h, read-out: Normal IC50
Experimental: Compound-induced colony inhibition was assayed by addition of serial dilutions of compound directly to the growth medium 24 h after tumor cell planting, and incubating cells for an additional 14 d to allow colony formation. Assays were terminated by rinsing monolayers twice with phosphate-buffered saline (PBS), fixing the monolayers with a 1% glutaraldehyde solution in PBS, then visualizing tumor cells by staining with X-Gal (Price, J., et al., Lineage analysis in the vertebrate nervous system by retrovirus-mediated gene transfer, Proc. Natl. Acad. Sci.84, 156-160(1987)). […] Both IC50 values were obtained by determining the density of tumor cells and mat cells by visual inspection and enumeration of cells per colony and the number of colonies under the microscope.

[3] = tested on: K ras NIH 3T3; assay: Soft agar assay; assay type: cell-based; settings: Mus musculus, NIH3T3, read-out: IC50, inhibition of human tumor cell growth, soft agar
[4] = tested on: A549; assay: Soft agar assay; assay type: cell-based; settings: Homo sapiens; A549 (lung) K ras mutation; read-out: IC50, inhibition of human tumor cell growth, soft agar
Experimental: (§1) Anchorage-independent growth is a characteristic of tumorigenic cell lines. Human tumor cells are suspended in growth medium containing 0.3% agarose and an indicated concentration of a farnesyl transferase inhibitor. The solution is overlayed onto growth medium solidified with 0.6% agarose containing the same concentration of farnesyl transferase inhibitor as the top layer. […] After incubation, the colonies are stained by overlaying the agar with a solution of MTT (3-[4,5-dimethylthiazol-2-yl]-2,5-diphenyltetrazolium bromide, Thiazolyl blue) (1 mg/mL in PBS). Colonies are counted and the IC50's determined.

[5] = tested on: HTB 175; assay: Soft agar assay; assay type: cell-based; settings: Homo sapiens; HTB 175 (SCLC) ras mut. not detected; read-out: IC50, inhibition of human tumor cell growth, soft agar
Experimental: as §1

[6] = tested on: HTB 177; assay: Soft agar assay; assay type: cell-based; settings: Homo sapiens; HTB 177 (NSCLC) K ras mutation; read-out: IC50, inhibition of human tumor cell growth, soft agar
Experimental: as §1

[7] = tested on: DLD-1 (human colon carcinoma cells); assay: In vivo anti-tumor studies, subcutaneous DLD-1 tumors in athymic nu/nu mice; set-up: species or system athymic nu/nu female mice; settings: Mus musculus, DLD-1, po, […], read-out: Average % Tumor Inhibition
Experimental: Tumor bearing animals are selected and randomized when the tumors are established. Animals are treated with vehicle (β-cyclodextrin for i.p. or corn oil for p.o.) only or with a compound of the present invention in vehicle four times a day (QID) for 7 days per week for 4 weeks. The percent inhibition of tumor growth relative to vehicle controls is determined by tumor measurements.

NC(=O)N1CCC(CC(=O)N2CCC([C@H]3c4ncc(Br)cc4CCc4cc(Cl)cc(Br)c43)CC2)CC1 [Example 10]
IC50 [1]: < 25 nM
IC50 [2]: > 25000 nM
IC50 [3]: 400 nM
IC50 [4]: 150 nM
IC50 [5]: 250 nM
IC50 [6]: 40 nM
inhibition in vivo at 10 mg/kg [7]: 49%
inhibition in vivo at 50 mg/kg [7]: 77%
